Results from patent US9371330B2, “Substituted pyrazino[1,2-a]pyrimidines useful as CBP/catenin antagonists for enhancing asymmetric division of somatic stem cells” (University of Southern California, priority 2011, dated 2016).
Entries after “also recorded” stand apart in the source; their conditions may differ.

Key:
[1] = tested on: Wnt/catenin transcription in SW480 colon carcinoma cells; assay: TOPFLASH TCF/catenin luciferase reporter; type: cell-based; details: Homo sapiens
Description: ICG-001. Applicant's pharmacologic tools were identified using cell-based forward chemical genomic screens of small molecule secondary structure template chemical libraries (22).

[2] = molecular target: CBP/beta-catenin interaction (Homo sapiens, UniProt Q92793); assay: disruption of CBP/beta-catenin interaction; type: binding
Description: (§1) Applicant next mapped the binding domains between CBP and beta-catenin, as well as between p300 and beta-catenin. The C-terminal trans-activating region of beta-catenin (647-781) interacted with the same 1-111 amino acids of both CBP and p300 (23). However, only the interaction between CBP and beta-catenin was disrupted by ICG-001, and not the p300/beta-catenin interaction.

[3] = molecular target: p300/beta-catenin interaction (Homo sapiens, UniProt Q09472); assay: disruption of p300/beta-catenin interaction; type: binding
Description: as §1

[4] = tested on: cerebral deposition of Aβ; assay: Aβ deposition in penta-transgenic mouse model of Alzheimer's disease; type: in vivo; details: 50 mg/kg/day, 2 months, immunohistochemistry, vs saline
Procedure: Applicant utilized a penta-transgenic mouse model of AD, which normally develops massive cerebral deposition of Aβ starting at 6 weeks of age. These mice were treated with either (A) ICG-001 (50 mg/kg/day) or (B) saline for 2 months. […] However, the effects of PS-1 mutations on the stability of beta-catenin, TCF/beta-catenin signaling, and thereby its potential role in AD remain controversial. […] In the CNS, EpB2 expression is associated with axonal guidance (16). […] In initial in vivo studies, applicant treated penta-transgenic mice that over express mutant APP(695) (Swedish (K670N,M671L), Florida ([…]) and London (V717I)) and PS-1 (M146L and L286V) mutations with ICG-001 for 2 months (months 2-4). These mice normally develop massive cerebral deposition of Aβ starting at 6 weeks of age.

[5] = tested on: NOD/SCIDIL2R gamma-/- mice; assay: leukemia mouse model: hair growth and wound healing; type: in vivo; details: ICG-001 50 mg/kg/d with VDL vs VDL only, 50 mg/kg/day
Procedure: NOD/SCIDIL2R gamma−/− mice were shaved and sublethally irradiated prior intravenous injection of 50,000 cells per animal. Leukemic animals were treated with a combination of intraperitoneally administered vincristine/dexamethasone/L-Aspariginase (VDL) and ICG-001 (50 mg/kg/d), which was delivered via subcutaneous osmotic pumps to ensure stable plasma levels, with VDL only as a control for 20 days. The animals were checked periodically for survival, hair growth, and wound healing.

[6] = tested on: colorectal cancer cells; assay: colorectal cancer cells: survivin and cytotoxicity; type: cell-based
Description: (§2) Cancer. The importance of Wnt signaling in colorectal cancer is undisputed. Applicant's investigation on the therapeutic utility of ICG-001 therefore quite naturally began with colon cancer.

[7] = tested on: Min mouse; assay: Min mouse polyps; details: in vivo
Description: as §2

[8] = tested on: MDA-MB-231 cells; assay: MDA-MB-231 stem/tumor initiating cell markers; type: cell-based
Description: This phenotype CD44^hi, CD24^lo has been associated with a subpopulation of cells that behave like a breast cancer stem/tumor initiating cell population (51). […] Beyond reduction of survivin message level, there is a gene expression profile consistent with the occurrence of a mesenchymal to epithelial (MET) transition (i.e. decreased expression of twist, vimentin and S100A4 and an increase in E-cadherin expression). Recently, there have been a number of papers, which have correlated epithelial to mesenchymal transition (EMT) with a CSC phenotype (52). EMT is a normal physiologic process that is important in development and in adults, for example in wound healing, but pathophysiologically is associated with tumor metastasis and organ fibrosis (see later discussion on fibrosis). Specific CBP/catenin antagonists can reverse this aberrant EMT in vivo (EMT also plays a critical role in the skin in hair loss etc. J Dermatol Sci. 2011 January; 61(1):7-13. Epub 2010 Dec. 5; epithelial-mesenchymal transition (EMT) plays important roles not only in the morphogenesis but also in wound repair, tissue fibrosis and cancer progression. Recently, regulatory mechanism of this process has been elaborately elucidated. EMT can be a new therapeutic target for treating skin ulcer, fibrosing alopecia, and malignant cutaneous cancers, including squamous cell carcinoma and melanoma).

[9] = tested on: bleomycin-induced pulmonary fibrosis; assay: bleomycin-induced lung injury / pulmonary fibrosis; type: in vivo, mouse
[10] = tested on: rat type II lung epithelial cells; assay: TGF-β1-induced EMT genes in rat type II lung epithelial cells; type: cell-based
Description: Fibrosis. Idiopathic pulmonary fibrosis (IPF)/usual interstitial pneumonia (UIP), the most common of the idiopathic interstitial pneumonias, is a devastating, progressive disorder characterized by excessive fibroblast proliferation and extracellular matrix remodeling leading to lung destruction. There is currently no effective therapy for this uniformly fatal disease. An emerging paradigm proposes a central role for alveolar epithelial cell injury and dysregulated repair in the pathogenesis of IPF. Injury to the epithelium is thought to initiate a cascade of fibroblast activation and matrix deposition, which in predisposed hosts fails to resolve as it would in the course of normal wound repair. Epithelial cells undergo excessive apoptosis, whereas fibroblasts are less amenable to apoptosis and manifest increased survival. The well-characterized model of bleomycin-induced lung injury has been extensively used to investigate potential pathways involved in the pathogenesis of pulmonary fibrosis and to explore therapeutic approaches.

[11] = tested on: PC-12 cells; assay: PC-12 cells with FAD mutant PS-1 (L286V): neuronal differentiation; type: cell-based
Description: However, the effects of PS-1 mutations on the stability of beta-catenin, TCF/beta-catenin signaling, and thereby its potential role in AD remain controversial. Applicant has shown that introduction of a FAD mutant PS-1 (L286V) into PC-12 cells causes increased TCF/beta-catenin signaling, leading to the inhibition of neurite outgrowth. […] In the CNS, EpB2 expression is associated with axonal guidance (16). […] In initial in vivo studies, applicant treated penta-transgenic mice that over express mutant APP(695) (Swedish (K670N,M671L), Florida ([…]) and London (V717I)) and PS-1 (M146L and L286V) mutations with ICG-001 for 2 months (months 2-4). These mice normally develop massive cerebral deposition of Aβ starting at 6 weeks of age.

Chain of CBP/beta-catenin interaction (Q92793 1-111): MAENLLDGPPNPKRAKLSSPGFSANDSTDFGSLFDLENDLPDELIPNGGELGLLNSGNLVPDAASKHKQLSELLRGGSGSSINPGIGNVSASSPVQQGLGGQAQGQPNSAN
Chain of p300/beta-catenin interaction (Q09472 1-111): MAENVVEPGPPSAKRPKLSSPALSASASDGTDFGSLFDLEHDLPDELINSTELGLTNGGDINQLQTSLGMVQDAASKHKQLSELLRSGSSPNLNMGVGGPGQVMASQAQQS

**Q.** For `O=C1[C@H](Cc2ccc(O)cc2)N2C(=O)CCN(C(=O)NCc3ccccc3)[C@H]2CN1Cc1cccc2ccccc12` [ICG-001], which IC50 [1] is on record?
**A.** 3000 nM

**Q.** What about the “disruption of the CBP/beta-catenin interaction” value [2] of the same compound?
**A.** disrupted

**Q.** And the “effect on the p300/beta-catenin interaction” value [3]?
**A.** without affecting the p300/beta-catenin interaction

**Q.** And the “amyloid plaque formation / Aβ staining” value [4]?
**A.** significant decrease in amyloid plaque formation; also recorded: decrease in Aβ staining

**Q.** And the “hair growth on shaved area” value ([5]; within two weeks)?
**A.** had regrown their hair; also recorded: substantial hair growth covering the entire previously shaved area

**Q.** What about the “healing of pump insertion wounds” value [5] of the same compound?
**A.** had substantial improved; also recorded: heal quicker

**Q.** And the survivin expression [6]?
**A.** down-regulated survivin

**Q.** And the cytotoxicity ([6]; colorectal cancer cells vs normal colonic epithelial cells)?
**A.** selective cytotoxicity in colorectal cancer cells, but not in normal colonic epithelial cells

**Q.** What about the polyps [7] of the same compound?
**A.** reducing polyps

**Q.** And the CD44 expression [8]?
**A.** decreasing CD44 expression

**Q.** And the “side population (SP) and ALDH activity” value [8]?
**A.** dramatically decreases the side population (SP) and ALDH activity

**Q.** What about the “cell surface CD24 expression” value ([8]; 24 h) of the same compound?
**A.** significantly increased the expression of cell surface CD24

**Q.** And the “bleomycin-induced lacZ expression in airway and alveolar epithelium” value ([9]; BAT-gal transgenic mice)?
**A.** significantly reduced

**Q.** What about the “expression of S100A4/FSP-1” value ([9]; bleomycin model in vivo in the mouse and fibroblasts from IPF patients in vitro) of the same compound?
**A.** significantly decreased the expression of S100A4/FSP-1

**Q.** What about the established fibrosis ([9]; mouse, in vivo) of the same compound?
**A.** could reverse established fibrosis

**Q.** And the “severity of pulmonary fibrosis” value ([9]; pretreatment)?
**A.** significantly reduced the severity of pulmonary fibrosis

**Q.** And the “TGF-β1-induced up-regulation of α-SMA and type I collagen” value [10]?
**A.** prevents the TGF-β1-induced up-regulation of α-SMA and type I collagen

**Q.** What about the GAP43 expression ([11]; NGF-induced differentiation, vs untreated cells) of the same compound?
**A.** dramatically increased

**Q.** What about the “neuronal differentiation and neurite outgrowth” value ([11]; PS-1 (L286V) mutant cells) of the same compound?
**A.** rescues the defects in neuronal differentiation and neurite outgrowth
